Consider three molecules from patent publication US20100311748A1, “HETEROCYCLIC AMIDES USEFUL FOR THE TREATMENT OF CANCER AND PSORIASIS” (ASTRAZENECA AB, priority 2007, published 2010).

The subject of this assay is Hedgehog pathway. Description: Hedgehog Pathway Cellular Differentiation Assay (alkaline phosphatase production in C3H10T1/2 cells with Shh ligand). The class given is cell-based. The settings on record: Mus musculus, C3H 10T1/2, 3 μM compound, Shh ligand conditioned media, 72 h, alkaline phosphatase. In outline: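 C3H10T1/2 cells in DMEM/2% FBS with Shh-conditioned medium were treated 72 h with compound, threefold dilutions from 30 μM to 3 nM. After RIPA lysis, alkaline phosphatase was read with pNp (1 mg/mL, diethanolamine pH 9.8) at 30 °C, absorbance 405 nm. Percent inhibition and IC50 came from absorbance.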
Usually inhibition stands for the drop in the measured response relative to a control, in per cent. The molecule `COc1ccc(C(=O)Nc2cc(-c3ncc[nH]3)ccc2C)cc1OC` [Example 154, N-[5-(1H-imidazol-2-yl)-2-methyl-phenyl]-3,4-dimethoxy-benzamide] returned an inhibition at 3 µM of 17.6%.

`Cc1ccc(-c2ncc[nH]2)cc1NC(=O)c1ccc(OCc2ccc(N3CCN(C)CC3)cn2)cc1` [Example 155, N-[5-(1H-imidazol-2-yl)-2-methylphenyl]-4-{[5-(4-methylpiperazin-1-yl)pyridin-2-yl]methoxy}benzamide]: the inhibition at 3 µM worked out at 83.3%.

In the case of `Cc1ccc(-c2cn(C)c(C)n2)cc1NC(=O)c1ccc(OCc2ccccn2)cc1` [Example 156, N-[5-(1,2-dimethyl-1H-imidazol-4-yl)-2-methylphenyl]-4-(pyridin-2-ylmethoxy)benzamide], testing at 3 µM gave an inhibition of 86.2%.
